# Data from patent publication US5648347A, “Arylmorpholine, preparation and use” (Glaxo Wellcome Inc., priority 1991, dated 1997).
# Counter-ions that a name gives are not always drawn.
# Test system: tetrabenazine-induced sedation
# Experiment: Antitetrabenazine Test: prevention of tetrabenazine-induced sedation in mice
# Assay type: in vivo, Mouse (CD1 males)
# Settings: 0.5 h; Antitetrabenazine Activity in the Mouse; compound ip 30 min before tetrabenazine hydrochloride (ip); scored 30 min after tetrabenazine; read-out: ED50 (amount of the test compound required to reverse the tetrabenazine effects in 50 percent of the animals tested)
# Protocol: Prevention of tetrabenazine-induced sedation was measured using a modification of the method of Vernier et al., First Hahnemann Symposium on Psychosomatic Medicine, ed. Nodim and Moyer, pub. Lea and Febiger, Philadelphia, 1962.
# Mice, groups of 12 CD1 males each, were injected intraperitoneally (ip) with the hydrochloride salt of a compound of formula (I) in physiological saline solution or with physiological saline solution alone. Thirty minutes later each of the mice was injected (ip, 35 mg/kg) with a solution of tetrabenazine hydrochloride. Thirty minutes after the injection of tetrabenazine each mouse was examined for its level of exploratory behavior which was scored on a modification of the arbitrary scale defined by Vernier et. al. The result reported in Table I as the ED50 value is the amount of the test compound required to reverse the tetrabenazine effects in 50 percent of the animals tested.
row,Compound,ED50 [mg/kg]
1,"C[C@@H]1CO[C@@H](c2ccc(F)cc2)[C@H](C)N1 [Example 12, (2S,3S,5R)-2-(4-fluorophenyl)-3,5-dimethylmorpholine hydrochloride]",6
2,"C[C@H]1CO[C@H](c2cccc(F)c2)[C@@H](C)N1 (relative stereo) [Example 1, (+-)-(2R*,3R*,5S*)-2-(3-fluorophenyl)-3,5-dimethylmorpholine hydrochloride]",4
3,"C[C@H]1CO[C@H](c2ccc(F)cc2)[C@@H](C)N1 (relative stereo) [Example 13, (+-)-(2R*,3R*,5S*)-2-(4-fluorophenyl)-3,5-dimethylmorpholine hydrochloride]",4
4,"C[C@@H]1[C@@H](c2ccc(F)cc2)OC[C@H](C)N1C (relative stereo) [Example 18, (+-)-(2R*,3R*,5S*)-2-(4-fluorophenyl)-3,4,5-trimethylmorpholine]",6
5,"C[C@@H]1[C@@H](c2cccc(F)c2)OC[C@H](C)N1C (relative stereo) [Example 14, (+-)-(2R*,3R*,5S*)-2-(3-fluorophenyl)-3,4,5-trimethylmorpholine hydrochloride]",8
6,"C[C@@H]1CO[C@@H](c2cccc(F)c2)[C@H](C)N1C [Example 16, (2S,3S,5R)-2-(3-fluorophenyl)-3,4,5-trimethylmorpholine hydrochloride]",8
7,"C[C@H]1CO[C@H](c2cccc(F)c2F)[C@@H](C)N1 (relative stereo) [Example 7, (+-)-(2R*,3R*,5S*)-2-(2,3-difluorophenyl)-3,5-dimethylmorpholine hydrochloride]",4
8,"C[C@@H]1CO[C@@H](c2ccc(F)c(F)c2)[C@H](C)N1.Cl [Example 2, (2S,3S,5R)-2-(3,4-difluorophenyl)-3,5-dimethylmorpholine hydrochloride]",8
9,"C[C@H]1CO[C@H](c2ccc(F)cc2)[C@@H](C)N1 [Example 6, (2R,3R,5S)-2-(4-fluorophenyl)-3,5-dimethylmorpholine hydrochloride]",10
